Assay results as given in patent US5252589A, “Benzocycloheptene derivative and process for preparation thereof” (Tanabe Seikayu Co., Ltd., priority 1992, dated 1993).
Where “and” joins values, the source holds several entries; their conditions need not be identical. Identical values can stand only once.

Experiments:
[1] = system: urinary bladder; test: Inhibitory effect on urinary bladder contractions (carbachol-induced, isolated rat urinary bladder); conditions: Tyrode solution 37° C., contraction by 1×10^-5 M carbachol, compound added 5 minutes before carbachol, read-out: IC50, concentration of the test compound required to induce 50% inhibition of the pressure
Procedure: (Inhibitory effect on urinary bladder contractions)
Rats (body weight: 250 to 450 g) were used as the test animals. […] Urinary bladder was filled with 0.8 ml of a physiological saline solution. An ureteral catheter was inserted into the urinary bladder and one end of the catheter was connected to a pressure transducer. The change in intravesical pressure of the bladder was recorded. Contraction was induced by adding 1×10^-5 M carbachol at 30 minutes intervals. After the contraction became stable, the test compound was added to the Tyrode solution 5 minutes before the addition of carbachol.

[2] = Acute oral toxicity in mice; format: in vivo; conditions: 500 mg/kg
Procedure: For example, when (±)-cis-5-(2-thienyl)-7-isopropylamino-6,7,8,9-tetrahydro-5H-benzocyclohepten-5-ol was orally administered to mice at a dose of 500 mg/kg, no mouse died two days after the administration thereof.

Row | IC50 [1] | Compound | mortality two days after oral administration [2]
1 | 0.7 µM | O[C@@]1(c2cccs2)C[C@@H](N2CCCCC2)CCc2ccccc21 (racemic) [(±)-cis-5-(2-thienyl)-7-(1-piperidinyl)-6,7,8,9-tetrahydro-5H-benzocyclohepten-5-ol] | –
2 | 1.1 µM | CCN(CC)[C@H]1CCc2ccccc2[C@](O)(c2cccs2)C1 (racemic) [(±)-cis-5-(2-thienyl)-7-diethylamino-6,7,8,9-tetrahydro-5H-benzocyclohepten-5-ol] | –

Row | Compound | IC50 [1] | mortality two days after oral administration [2]
3 | (±)-cis-5-(2-thienyl)-7-isopropylamino-6,7,8,9-tetrahydro-5H-benzocyclohepten-5-ol | 2.6 µM and 2.2 µM | no mouse died
